Legend:
Solution stability test = format: physicochemical; conditions: for % Residual ratio: 25 umol/L
Description: For Example 6, Example 11, and Example 22, the stability in each pH was measured. Test compounds at a concentration of 25 umol/L in respective buffer solutions prepared at pH 2.0, 3.0, 5.0, 7.4, and 9.0 were allowed to stand at 25° C. After 0, 3, 6, 9, 12, and 24 hours, they were measured with HPLC.
The buffer solutions used at respective pHs are as described below. pH 2.0: 50 mmol/L glycine buffer solution pH 3.0: 50 mmol/L citrate buffer solution pH 5.0: 50 mmol/L citrate buffer solution pH 7.4: 50 mmol/L phosphate buffer solution pH 9.0: 50 mmol/L glycine buffer solution
The measurement condition of HPLC is as described below.
Column temperature: 40° C.
Mobile phase: A: 0.1% trifluoroacetic acid-containing water

Solubility test = conditions: 50 mmol/L glycine buffer solution (pH 2.0), room temperature, 24 hours shaking
Description: A water-soluble prodrug was added into 50 mmol/L glycine buffer solution (pH 2.0). After shaking at room temperature for 24 hours, the mixture was filtered through a membrane filter, and then the filtrate was measured with HPLC.
The measurement condition of HPLC is as described below. HPLC condition column: Acquity UPLC BEH C18, 1.7 um, 50×2.1 mm

[1] = Evaluation of a conversion rate to 2-acetylnaphtho[2,3-b]furan-4,9-dione in pH 7.4 phosphate buffer solution; format: physicochemical; conditions: Phosphate buffer solution (pH 7.4), 1 umol/L, 37° C., incubation time 120 min
Summary of the method: (§1)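 Compounds at 1 umol/L were incubated at 37° C in human plasma, CD1 mouse plasma or pH 7.4 phosphate buffer, sampled up to 120 minutes, acid/acetonitrile-deproteinised and analysed by LC-MS (ESI positive). Conversion (%) derived from the peak area ratio of the active form to phenytoin internal standard.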

[2] = Evaluation of a conversion rate to 2-acetylnaphtho[2,3-b]furan-4,9-dione in CD1 mouse plasma; format: in vitro ADME; conditions: CD1 mouse plasma, 1 umol/L, 37° C., incubation time 120 min
Summary of the method: as §1

[3] = Pharmacokinetics test, intravenous administration; conditions: for Plasma Compound Concentration: Activated form 1 in plasma, 10.5 mg/kg (i.v.)
Description: For water-soluble prodrugs described in the EXAMPLES, the concentration of 2-acetylnaphtho[2,3-b]furan-4,9-dione (Activated form 1) in plasma was measured. Animal species, an administration method, a method of making standard solutions, and a method of measuring the concentration in plasma are as described below.
Animal: Seven-week-aged male CD1 (ICR) mice were used as an experimental animal.
Administration method: A test substance was weighed, and then dissolved in 50 mmol/L glycine buffered saline (pH 2.0) to produce an administration solution. The body weight of a mouse was measured, and the prepared administration solution was intravenously administered.
Blood collecting method: Heparin was added to a blood-collecting vessel, and blood was collected from a mouse. To the obtained blood, 46% of Citric acid was added in 1% volume. It was then centrifuged to obtain plasma. To the collected plasma, 1 mol/L HCl was added in 10% volume to produce a plasma sample. A sample obtained by adding 10% volume of 1 mol/L HCl to blank plasma was used as a blank sample.
Making of a standard solution: One mg of a test sample was weighed, and dissolved in 10 mL of acetonitrile using a measuring flask to make a standard solution of 100 ug/mL.
Measurement of the concentration in plasma: One hundred ug/mL of the standard solution was diluted in 50% acetonitrile solution to make calibration curve samples of target concentrations. Twenty uL of a blank sample was added to 18 uL of the calibration curve sample to make a plasma calibration curve sample. Eighteen uL of 50% acetonitrile solution was added to 20 uL of the administered plasma sample to make a sample for plasma analysis. One hundred uL of acetonitrile (containing 1% volume of 10 mol/L HCl) containing an internal standard was added to the plasma calibration curve sample and the sample for plasma analysis, respectively. It should be noted that phenytoin was used as the internal standard and its concentration was prepared in 100 nmol/L. 10 uL of each sample was analyzed with LC-MS. A calibration curve was made from a value (peak ratio) of the peak area of a test substance in MS divided by the peak area of the internal standard, and the concentrations of plasma calibration curve samples. The concentration in a sample was calculated from the peak ratio of each sample and the calibration curve.

[4] = Evaluation of a conversion rate to 2-acetylnaphtho[2,3-b]furan-4,9-dione in human plasma; format: in vitro ADME; conditions: Human plasma, 1 umol/L, 37° C., incubation time 120 min
Summary of the method: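 Compounds at 1 umol/L incubated at 37° C in human plasma, CD1 mouse plasma or pH 7.4 phosphate buffer, sampled up to 120 minutes. After acidified acetonitrile protein removal, parent loss and conversion to 2-acetylnaphtho[2,3-b]furan-4,9-dione measured by LC-MS (ESI positive).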

Compound: COC(=O)[C@@H](N)CCNC(=O)Oc1c2ccccc2c(OC(=O)NCC[C@H](N)C(=O)OC)c2oc(C(C)=O)cc12.Cl.Cl [Example 11]
- stability in solution (in words) (Solution stability test; pH 2.0, 25° C.): very stable
- % Residual ratio (Solution stability test; pH 2.0, 25° C., 0 hr): 100%
- % Residual ratio (Solution stability test; pH 2.0, 25° C., 3 hr): 100%
- % Residual ratio (Solution stability test; pH 2.0, 25° C., 6 hr): 102%
- % Residual ratio (Solution stability test; pH 2.0, 25° C., 9 hr): 102%
- % Residual ratio (Solution stability test; pH 2.0, 25° C., 12 hr): 104%
- % Residual ratio (Solution stability test; pH 2.0, 25° C., 24 hr): 102%
- stability in solution (in words) (Solution stability test; pH 3.0, 25° C.): sufficient stability
- % Residual ratio (Solution stability test; pH 3.0, 25° C., 0 hr): 100%
- % Residual ratio (Solution stability test; pH 3.0, 25° C., 3 hr): 98.6%
- % Residual ratio (Solution stability test; pH 3.0, 25° C., 6 hr): 97.3%
- % Residual ratio (Solution stability test; pH 3.0, 25° C., 9 hr): 98.8%
- % Residual ratio (Solution stability test; pH 3.0, 25° C., 12 hr): 94.5%
- % Residual ratio (Solution stability test; pH 3.0, 25° C., 24 hr): 90.7%
- % Residual ratio (Solution stability test; pH 5.0, 25° C., 0 hr): 100%
- % Residual ratio (Solution stability test; pH 5.0, 25° C., 3 hr): 36.0%
- % Residual ratio (Solution stability test; pH 5.0, 25° C., 6 hr): 14.0%
- % Residual ratio (Solution stability test; pH 5.0, 25° C., 9 hr): 5.2%
- % Residual ratio (Solution stability test; pH 5.0, 25° C., 12 hr): 0%
- % Residual ratio (Solution stability test; pH 5.0, 25° C., 24 hr): 0%
- % Residual ratio (Solution stability test; pH 7.4, 25° C., 0 hr): 100%
- % Residual ratio (Solution stability test; pH 7.4, 25° C., 3 hr): 0%
- % Residual ratio (Solution stability test; pH 7.4, 25° C., 6 hr): 0%
- % Residual ratio (Solution stability test; pH 7.4, 25° C., 9 hr): 0%
- % Residual ratio (Solution stability test; pH 7.4, 25° C., 12 hr): 0%
- % Residual ratio (Solution stability test; pH 7.4, 25° C., 24 hr): 0%
- % Residual ratio (Solution stability test; pH 9.0, 25° C., 0 hr): 100%
- % Residual ratio (Solution stability test; pH 9.0, 25° C., 3 hr): 0%
- % Residual ratio (Solution stability test; pH 9.0, 25° C., 6 hr): 0%
- % Residual ratio (Solution stability test; pH 9.0, 25° C., 9 hr): 0%
- % Residual ratio (Solution stability test; pH 9.0, 25° C., 12 hr): 0%
- % Residual ratio (Solution stability test; pH 9.0, 25° C., 24 hr): 0%
- Solubility in pH 2.0 buffer solution (Solubility test): >5.0 mg/mL
- % Measurement value (conversion rate to 2-acetylnaphtho[2,3-b]furan-4,9-dione) [1]: 58%
- % Measurement value (conversion rate to 2-acetylnaphtho[2,3-b]furan-4,9-dione) [2]: 100%
- Plasma Compound Concentration ([3]; 0.083 hr, animal 1): 3740 nM
- Plasma Compound Concentration ([3]; 0.083 hr, animal 2): 4410 nM
- Plasma Compound Concentration ([3]; 0.083 hr, animal 3): 5290 nM
- Plasma Compound Concentration ([3]; 0.083 hr, mean): 4480 nM
- Plasma Compound Concentration ([3]; 0.5 hr, animal 1): 690 nM
- Plasma Compound Concentration ([3]; 0.5 hr, animal 2): 1170 nM
- Plasma Compound Concentration ([3]; 0.5 hr, animal 3): 1390 nM
- Plasma Compound Concentration ([3]; 0.5 hr, mean): 1080 nM
- Plasma Compound Concentration ([3]; 1.0 hr, animal 1): 420 nM
- Plasma Compound Concentration ([3]; 1.0 hr, animal 2): 620 nM
- Plasma Compound Concentration ([3]; 1.0 hr, animal 3): 630 nM
- Plasma Compound Concentration ([3]; 1.0 hr, mean): 560 nM
- Plasma Compound Concentration ([3]; 2.0 hr, animal 1): 360 nM
- Plasma Compound Concentration ([3]; 2.0 hr, animal 2): 280 nM
- Plasma Compound Concentration ([3]; 2.0 hr, animal 3): 80 nM
- Plasma Compound Concentration ([3]; 2.0 hr, mean): 240 nM
- production of 2-acetylnaphtho[2,3-b]furan-4,9-dione (Activated form 1) (in words) ([3]; intravenously administered to mice): rapidly produced
- % Measurement value (conversion rate to 2-acetylnaphtho[2,3-b]furan-4,9-dione) [4]: 100%

Reference: patent publication US10800752B2, “Substituted naphtho[2,3-b]furans as water-soluble prodrugs for preventing and/or treating cancer” (BOSTON BIOMEDICAL, INC., priority 2015, dated 2020)
